# What was measured:
# Plasmodium falciparum [1] = assay: Hit confirmation in dose-response curve in NF54 nanoGlo assay, at 72h; type: functional, organism-based, Erythrocyte; set-up: timepoint 72 hour; conditions: Plasmodium falciparum, NF54, Erythrocyte, 72 h
# Plasmodium falciparum [2] = assay: Re-testing in dose-response curve in 3D7 pLDH assay, at 72h; type: functional, organism-based; set-up: timepoint 72 hour; conditions: 3D7, Erythrocyte
# [3] = Re-testing in dose-response curve in HepG2 cytotoxicity assay, at 72h; type: toxicity, cell-based; set-up: timepoint 72 hour; conditions: human, HepG2 cells
# Plasmodium falciparum [4] = assay: Hit confirmation in dose-response curve in NF54 nanoGlo assay, at 12h; type: functional, organism-based, Erythrocyte; set-up: timepoint 12 hour; conditions: Plasmodium falciparum, NF54, Erythrocyte, 12 h
# Plasmodium falciparum [5] = assay: Hit confirmation in dose-response curve in NF54 pLDH assay, at 72h; type: functional, organism-based; set-up: timepoint 72 hour; conditions: NF54, Erythrocyte
# [6] = Hit confirmation in dose-response curve in HepG2 cytotoxicity assay, at 72h; type: toxicity, cell-based; set-up: timepoint 72 hour; conditions: human, HepG2 cells
# Plasmodium falciparum [7] = assay: Hit confirmation in dose-response curve in Dd2 pLDH assay, at 72h; type: functional, organism-based; set-up: timepoint 72 hour; conditions: Dd2, Erythrocyte
SMILES,IC50 (Plasmodium falciparum [1]),IC50 (Plasmodium falciparum [2]),IC50 (Plasmodium falciparum [4]),IC50 (Plasmodium falciparum [5]),IC50 (Plasmodium falciparum [7]),IC50 at 72 h [3],IC50 at 72 h [6]
NC(=NCc1cccc2cccnc12)N1CCN(c2nccs2)CC1,1700 nM,709 nM,> 10 µM,447 nM,501 nM,> 25 µM,> 10 µM
CC(=O)N(C1CCN(Cc2ccccc2)CC1)C1(C(=O)Nc2ccc3[nH]ccc3c2)CCN(C)CC1,1660 nM,1230 nM,3.98 µM,1260 nM,1230 nM,> 25 µM,> 10 µM
Clc1cccc(CNCCCNc2ccncc2)c1Cl,2000 nM,1150 nM,7.59 µM,2000 nM,1550 nM,16.3 µM,> 10 µM
O=C(CN1CCC[C@H]1C1CCCC1)NCC1CCCCC1,3800 nM,2070 nM,> 10 µM,3020 nM,1660 nM,> 25 µM,> 10 µM
CCN1CCN(c2cccc(NC(=O)c3ccc4[nH]c5ccccc5c(=O)c4c3)c2)CC1,955 nM,~459 nM,4.79 µM,1700 nM,1170 nM,7.42 µM,> 10 µM
Clc1ccc(COc2ccc(Cl)cc2CNCCCn2ccnc2)c(Cl)c1,1410 nM,1010 nM,3.02 µM,1260 nM,1380 nM,6.11 µM,> 10 µM
Cc1cc(NC(=O)C(=O)NC2CC(C)CC(C)(C)C2)n(-c2nc3c(c(=O)[nH]2)CCC3)n1 (stereo not drawn),1150 nM,392 nM,> 10 µM,2090 nM,1780 nM,0.118 µM,> 10 µM
COc1ccnc(CN2CCC[C@H](c3nc(-c4ccccc4)c[nH]3)C2)c1OC,1450 nM,15600 nM,4.9 µM,1780 nM,1700 nM,10.2 µM,> 10 µM
Cc1c([C@@H](NCc2ncccc2O)C(C)C)oc2ccccc12,275 nM,291 nM,0.407 µM,832 nM,602 nM,> 25 µM,> 10 µM
Cc1ccc2c(c1)CCCN2C(=O)CN1CC=C(c2cnn(C)c2)CC1,3720 nM,777 nM,> 10 µM,3800 nM,1740 nM,> 25 µM,> 10 µM
CN1CCCN(c2ccc(NC(=O)c3nn(-c4ccccc4)c(=O)c4ccccc34)cc2F)CC1,1380 nM,1150 nM,2.51 µM,2100 nM,1910 nM,7.35 µM,> 10 µM
COc1ccc(-c2cc(C(=O)N[C@H]3CCN(c4ccc(=O)[nH]n4)C3)c(C)n2C)cc1,501 nM,289 nM,> 10 µM,2040 nM,871 nM,> 25 µM,> 10 µM
C[C@H]1CCN(c2nc(-c3ccccn3)nc3c2CCC3)C1,692 nM,2150 nM,2.04 µM,1290 nM,1230 nM,4.75 µM,> 10 µM
CN1CC[C@]2(CCN(c3ccnc4ccsc34)C2)C1,550 nM,461 nM,0.912 µM,380 nM,407 nM,> 24.8 µM,> 10 µM
CC(C)c1cc(CN(Cc2cc(C(C)C)c(O)c(C(C)C)c2)C2CCCCC2)cc(C(C)C)c1O,100 nM,113 nM,0.631 µM,151 nM,100 nM,> 8.33 µM,> 10 µM
COc1ccc(F)cc1S(=O)(=O)N1CCc2noc(N)c2C1,158 nM,> 25000 nM,> 10 µM,912 nM,955 nM,> 25 µM,> 10 µM
O=S(=O)(NC12CCCC1CNC2)c1onc(C2CC2)c1Cl (stereo not drawn),891 nM,10500 nM,1.62 µM,1480 nM,1150 nM,> 25 µM,> 10 µM
Cc1nc(N)nc(C)c1C(=O)Nc1ccc(Nc2ncccn2)cc1,1480 nM,1460 nM,> 10 µM,1780 nM,1700 nM,> 25 µM,> 10 µM
CCOC(=O)c1c(CN2CCCC2)n(C)c2cc(-c3cccnc3)c(O)c(Cn3ccnc3)c12,145 nM,3650 nM,> 10 µM,174 nM,132 nM,> 25 µM,> 10 µM
Cc1ccc(NC(=O)Nc2cc(C)ccc2N2CCCN(Cc3ccc(F)cc3)C2=O)cc1,5500 nM,–,> 10 µM,14100 nM,> 10000 nM,–,> 10 µM
CC(C)[C@@H]1CC[C@H](C)C[C@H]1OC(=O)Cn1cc(-c2ccc(Cl)cc2)[n+]2c1CCC2,955 nM,–,5.01 µM,2340 nM,1200 nM,–,> 10 µM
Cc1nn(-c2nc3ccccc3[nH]2)c2c1[C@@H](c1cccnc1)CC(=O)N2,1550 nM,–,2.19 µM,6460 nM,> 10000 nM,–,> 10 µM

# Further molecules by falling IC50 (Plasmodium falciparum [1]), results first:
IC50 (Plasmodium falciparum [1]),IC50 (Plasmodium falciparum [2]),IC50 (Plasmodium falciparum [4]),IC50 (Plasmodium falciparum [5]),IC50 (Plasmodium falciparum [7]),SMILES,IC50 at 72 h [3],IC50 at 72 h [6]
4680 nM,–,> 10 µM,8710 nM,> 10000 nM,CC(C)C(=O)Nc1ccc(-c2cc(-c3ccc(NC(=O)C(C)C)cc3)nc(-c3ccncc3)n2)cc1,–,> 10 µM
3980 nM,575 nM,> 10 µM,6920 nM,1950 nM,O=C(c1cscn1)N1CC[C@H](Oc2cccc(Cl)c2)C1,> 25 µM,> 10 µM
2690 nM,10500 nM,10 µM,1320 nM,1450 nM,O=S(=O)(Nc1ccc(O)c2cccnc12)N1CCCC1,12.5 µM,> 10 µM
2040 nM,1100 nM,2.82 µM,3310 nM,2000 nM,N#Cc1cc(S(=O)(=O)NCCN(C2CC2)S(=O)(=O)c2ccc(Cl)c(C#N)c2)ccc1Cl,13.6 µM,> 10 µM
1950 nM,–,> 10 µM,3390 nM,1860 nM,Cc1cc(N2CCC3(CCCN3Cc3cc(C#N)n(C)c3C)CC2)c2ccccc2n1,–,> 10 µM
1910 nM,2490 nM,> 10 µM,4370 nM,977 nM,CCc1ccc(C(=O)NCCCC2CCCC2O)cc1S(=O)(=O)N1CCOCC1 (stereo not drawn),> 25 µM,> 10 µM
1620 nM,3000 nM,2.82 µM,1290 nM,1700 nM,Cc1ccnc(Nc2ccc(N3CCNCC3)nn2)c1,> 25 µM,> 10 µM
1580 nM,5090 nM,3.09 µM,3160 nM,1740 nM,Cc1ccc(Nc2ccc(N3CCNCC3)nn2)nc1,> 25 µM,> 10 µM
1410 nM,234 nM,> 10 µM,4270 nM,1290 nM,CCc1nc2c(C(=O)N3CCOc4c(C)cc(C)cc43)ccnc2[nH]1,> 25 µM,> 10 µM
1380 nM,–,2.45 µM,3160 nM,1780 nM,CCOc1cc(C(=O)Nc2ccc3nc4c(c(Nc5ccc(OC)c(OC)c5)c3c2)CCCC4)cc(OCC)c1OCC,–,> 10 µM
776 nM,5000 nM,1.32 µM,1050 nM,1020 nM,Oc1ccccc1-c1cnc(C(F)(F)F)s1,19.4 µM,> 10 µM
759 nM,6520 nM,1.1 µM,2950 nM,1230 nM,COc1ccc([C@@H]2C=C(c3ccc(Cl)cc3)N=C3NC(NC(=O)c4ccccc4OC)=NN32)cc1,> 25 µM,> 10 µM
724 nM,488 nM,1.58 µM,1020 nM,1000 nM,Cc1noc(C)c1CN1C[C@@H]2Oc3cc(F)ccc3C(=O)N(C)[C@@H]2C1,> 25 µM,> 10 µM
692 nM,9790 nM,> 10 µM,1700 nM,891 nM,CC(C)N(CC(=O)Nc1nccs1)Cc1ccccn1,> 24.8 µM,> 10 µM
525 nM,~377 nM,> 10 µM,1200 nM,708 nM,CN(C)Cc1ccc(NC(=O)c2cc(F)cc3c(=O)c4cc(F)ccc4[nH]c23)cc1,2.86 µM,> 10 µM
263 nM,–,> 10 µM,513 nM,372 nM,CCc1ccc(/C=C/c2c[nH]c3ccccc23)[n+](CC)c1,–,> 10 µM
251 nM,2110 nM,> 10 µM,1100 nM,955 nM,Nc1c(-c2nc3ccccc3[nH]2)c2nc3ccccc3nc2n1Cc1ccccc1F,24.7 µM,> 10 µM
229 nM,1320 nM,2.34 µM,676 nM,275 nM,Cc1cccc(CN(Cc2cccc(C)n2)C[C@H]2CCCCO2)n1,> 25 µM,> 10 µM
195 nM,429 nM,0.257 µM,309 nM,269 nM,Oc1ccccc1CCN[C@H]1CCc2ccc(F)cc21,> 25 µM,> 10 µM

# Source: ChEMBL document CHEMBL4888484, “Replenishing the malaria drug discovery pipeline: Screening and hit evaluation of the MMV Hit Generation Library 1 (HGL1) against asexual blood stage Plasmodium falciparum ,using a nano luciferase reporter read-out” (2022)
